Counter-ions that a name gives are not always drawn.
Tested on: PDGFR
Test: Rat A10 cell proliferation assay
Assay type: cell-based
Settings: Rat A10 cells, 1% FBS, 10 ng/mL recombinant rat PDGF-BB, 68 hours with compound, CellTiter-Glo luminescence
Description: Compounds of Formula (I), (II) or (III) provided herein were assayed to measure their capacity to inhibit PDGFR kinases using the appropriate assay described below: PDGFR inhibition was evaluated using the Rat A10 cell proliferation.
Rat A10 Cell Proliferation Assay
Rat A10 cells (ATCC) were resuspended in DMEM supplemented with 1% FBS and 10 ng/mL recombinant rat PDGF-BB at 20,000 cells/mL. The cells were aliquoted into 384 well plates at 50 μL/well and incubated for 4 hours at 37° C. […] The plates were returned to the incubator for a further 68 hours. 25 μL of CellTiter-Glo (Promega) was added to each well and the plates were incubated on the bench for 15 minutes. Luminescence was then read using a CLIPR CCD camera (Molecular Devices).
Data were analysed using non-linear regression fitted to sigmoidal (variable slope) curves using a four parameter logistic equation to generate IC50 values for each compound.

Row | SMILES | IC50
1 | CN1CCN(c2ccccc2CNC(=O)c2ccc(F)c(NC(=O)c3cnc4cc(-c5ccc(C(=O)NCCO)c(F)c5)ccn34)c2)CC1 [Example 1.2, 7-(3-Fluoro-4-(2-hydroxyethylcarbamoyl)phenyl)-N-(2-fluoro-5-(2-(4-methylpiperazin-1-yl)benzylcarbamoyl)phenyl)imidazo[1,2-a]pyridine-3-carboxamide] | 0.04 µM
2 | CN(C)CCCOc1ccc(-c2ccn3c(C(=O)Nc4cc(C(=O)NCc5ccc(F)c(F)c5)ccc4F)cnc3c2)cn1 [Example 1.9, N-(5-(3,4-difluorobenzylcarbamoyl)-2-fluorophenyl)-7-(6-(3-(dimethylamino)propoxy)pyridine-3-yl)imidazo[1,2-a]pyridine-3-carboxamide] | 0.011 µM
3 | C[C@@H]1CCC[C@H](C)N1CCNC(=O)c1ccc(F)c(NC(=O)c2cnc3cc(-c4cccnc4)ccn23)c1 [Example 1.16, 1-(2-(4-fluoro-3-(7-(pyridine-3-yl)imidazo[1,2-a]pyridine-3-carboxamido)benzamido)ethyl)-2,6-cis-dimethylpiperidinium chloride] | 0.027 µM
4 | Cc1ncc(C(=O)NCc2ccccc2N2CCN(C)CC2)cc1NC(=O)c1cnc2cc(-c3ccnn3C)ccn12 [Example 1.19, 1-methyl-4-(2-((6-methyl-5-(7-(1-methyl-1H-pyrazol-5-yl)imidazo[1,2-a]pyridine-3-carboxamido)nicotinamido)methyl)phenyl)piperazin-1-ium chloride] | 0.074 µM
5 | C[C@@H]1CCC[C@H](C)N1CCNC(=O)c1ccc(F)c(NC(=O)c2cnc3cc(-c4cnn(C)c4)ccn23)c1 [Example 1.20, 7-(1-Methyl-1H-pyrazol-4-yl)-imidazo[1,2-a]pyridine-3-carboxylic acid {5-[2-(2,6-cis-dimethyl-piperidin-1-yl)-ethylcarbamoyl]-2-fluoro-phenyl}-amide hydrochloride] | 0.013 µM
6 | CN(C)CCCOc1ccc(-c2ccn3c(C(=O)Nc4cc(C(=O)NCCOC(C)(C)C)ccc4F)cnc3c2)cn1 [Example 2.1, N-(5-(2-tert-Butoxyethylcarbamoyl)-2-fluorophenyl)-7-(6-(3-(dimethylamino)propoxy)pyridin-3-yl)imidazo[1,2-a]pyridine-3-carboxamide] | 0.003 µM
7 | COCCN(C)Cc1cncc(-c2ccn3c(C(=O)Nc4cc(C(=O)NC[C@H]5CCC(C)(C)O5)ccc4F)cnc3c2)c1 [Example 2.6, (R)-N-(5-(((5,5-dimethyltetrahydrofuran-2-yl)methyl)carbamoyl)-2-fluorophenyl)-7-(5-(((2-methoxyethyl)(methyl)amino)methyl)pyridin-3-yl)imidazo[1,2-a]pyridine-3-carboxamide] | 0.016 µM
8 | O=C(NCc1ccc(F)c(F)c1)c1ccc(F)c(NC(=O)c2cnc3cc(-c4ccc(OCCN5CCCC5)nc4)ccn23)c1 [Example 3.1, N-(5-(3,4-Difluorobenzylcarbamoyl)-2-fluorophenyl)-7-(6-(2-(pyrrolidin-1-yl)ethoxy)pyridin-3-yl)imidazo[1,2-a]pyridine-3-carboxamide hydrochloride] | 0.013 µM
9 | CC(C)(C)OCCNC(=O)c1ccc(F)c(NC(=O)c2cnc3cc(-c4ccc(OCCN5CCCC5)nc4)ccn23)c1 [Example 3.2, N-(5-((2-(tert-Butoxy)ethyl)carbamoyl)-2-fluorophenyl)-7-(6-(2-(pyrrolidin-1-yl)ethoxy)pyridin-3-yl)imidazo[1,2-a]pyridine-3-carboxamide] | 0.015 µM
10 | CN1CCC(Oc2ccc(-c3ccn4c(C(=O)Nc5cc(C(=O)NCC6CCC(C)(C)O6)ccc5F)cnc4c3)cn2)CC1 (stereo not drawn) [Example 3.3, N-(5-(((5,5-dimethyltetrahydrofuran-2-yl)methyl)carbamoyl)-2-fluorophenyl)-7-(6-((1-methylpiperidin-4-yl)oxy)pyridin-3-yl)imidazo[1,2-a]pyridine-3-carboxamide] | 0.01 µM
11 | Cc1ccc(C(=O)NCc2ccccc2N2CCN(C)CC2)cc1NC(=O)c1cnn2cc(-c3ccnn3C)ccc12 [Example 4.1, 6-(1-Methyl-1H-pyrazol-5-yl)-N-(2-methyl-5-(2-(4-methylpiperazin-1-yl)benzylcarbamoyl)phenyl)pyrazolo[1,5-a]pyridine-3-carboxamide hydrochloride] | 0.012 µM
12 | CC(C)(O)CCc1ccn2c(C(=O)Nc3cc(C(=O)NCc4ccc(F)c(F)c4)ccc3F)cnc2c1 [Example 6.1, N-(5-(3,4-Difluorobenzylcarbamoyl)-2-fluorophenyl)-7-(3-hydroxy-3-methylbutyl)imidazo[1,2-a]pyridine-3-carboxamide] | 0.041 µM
13 | CC(C)(CO)NC(=O)c1ccc(-c2ccn3c(C(=O)Nc4cc(C(=O)NCCN5CCCC5(C)C)ccc4F)cnc3c2)cc1F [Example 7.5, N-(5-(2-(2,2-Dimethylpyrrolidin-1-yl)ethylcarbamoyl)-2-fluorophenyl)-7-(3-fluoro-4-(1-hydroxy-2-methylpropan-2-ylcarbamoyl)phenyl)imidazo[1,2-a]pyridine-3-carboxamide] | 0.008 µM
14 | Cc1ncc(C(=O)NCCN2CCCC2(C)C)cc1NC(=O)c1cnn2cc(-c3ccc(C(=O)NC(C)(C)CO)c(F)c3)ccc12 [Example 7.6, N-(5-(2-(2,2-Dimethylpyrrolidin-1-yl)ethylcarbamoyl)-2-methylpyridin-3-yl)-6-(3-fluoro-4-(1-hydroxy-2-methylpropan-2-ylcarbamoyl)phenyl)pyrazolo[1,5-a]pyridine-3-carboxamide] | 0.182 µM
15 | O=C(NCc1ccc(F)c(F)c1)c1ccc(F)c(NC(=O)c2cnc3cc(-c4ccc(C(=O)NCCCN5CCOCC5)c(F)c4)ccn23)c1 [Example 8.1, N-(5-(3,4-Difluorobenzylcarbamoyl)-2-fluorophenyl)-7-(3-fluoro-4-(3-morpholinopropylcarbamoyl)phenyl)imidazo[1,2-a]pyridine-3-carboxamide hydrochloride] | 0.004 µM
16 | C[C@@H]1CCC[C@H](C)N1CCNC(=O)c1ccc(F)c(NC(=O)c2cnc3cc(-c4ccc(C(=O)NC(C)(C)CO)c(F)c4)ccn23)c1 [Example 8.2, N-(5-(2-(2,6-cis-Dimethylpiperidin-1-yl)ethylcarbamoyl)-2-fluorophenyl)-7-(3-fluoro-4-(1-hydroxy-2-methylpropan-2-ylcarbamoyl)phenyl)imidazo[1,2-a]pyridine-3-carboxamide] | 0.008 µM
17 | CN1CCN(c2ccccc2CNC(=O)c2ccc(F)c(NC(=O)c3cnc4cc(-c5cc(F)cc(C(=O)NCCO)c5)ccn34)c2)CC1 [Example 8.4, N-(2-Fluoro-5-(2-(4-methylpiperazin-1-yl)benzylcarbamoyl)phenyl)-7-(3-fluoro-5-(2-hydroxyethylcarbamoyl)phenyl)imidazo[1,2-a]pyridine-3-carboxamide] | 0.112 µM
18 | CCCC1CCN(CCNC(=O)c2ccc(F)c(NC(=O)c3cnc4cc(-c5cnn(C)c5)ccn34)c2)C1 (stereo not drawn) [Example 9.2, N-(2-Fluoro-5-((2-(3-propylpyrrolidin-1-yl)ethyl)carbamoyl)phenyl)-7-(1-methyl-1H-pyrazol-4-yl)imidazo[1,2-a]pyridine-3-carboxamide] | 0.011 µM
19 | CC1CC(C)CN(CCNC(=O)c2ccc(F)c(NC(=O)c3cnc4cc(-c5cnn(C)c5)ccn34)c2)C1 (stereo not drawn) [Example 9.4, N-(5-((2-(3,5-Dimethylpiperidin-1-yl)ethyl)carbamoyl)-2-fluorophenyl)-7-(1-methyl-1H-pyrazol-4-yl)imidazo[1,2-a]pyridine-3-carboxamide] | 0.128 µM
20 | Cc1ncc(C(=O)NCCN2CCCCC2(C)C)cc1NC(=O)c1cnn2cc(-c3cnn(C)c3)ccc12 [Example 9.13, N-(5-((2-(2,2-Dimethylpiperidin-1-yl)ethyl)carbamoyl)-2-methylpyridin-3-yl)-6-(1-methyl-1H-pyrazol-4-yl)pyrazolo[1,5-a]pyridine-3-carboxamide] | 0.007 µM
21 | CC[C@@H]1CN(CCNC(=O)c2ccc(F)c(NC(=O)c3cnc4cc(-c5cnn(C)c5)ccn34)c2)[C@H]1CC [Example 9.15, N-(5-((2-((2S,3R)-2,3-diethylazetidin-1-yl)ethyl)carbamoyl)-2-fluorophenyl)-7-(1-methyl-1H-pyrazol-4-yl)imidazo[1,2-a]pyridine-3-carboxamide] | 0.002 µM

From patent US9751876B2, “Bicyclic heterocycle derivatives for the treatment of pulmonary arterial hypertension” (Novartis AG, priority 2011, dated 2017)
